Earlier results as cited in doi:10.1101/2023.05.15.540887, “Comparative analysis of drug-like EP300/CREBBP acetyltransferase inhibitors” (bioRxiv, 2023).

Tests used:
Parameters in all cases: method as in ref 29 (a number printed in a supplementary file, which may have a reference list of its own: not looked up in the article's list)
[1] = tested on: NCI-H322M; settings: Non-SmallCellLung NCI-H322M; highest log conc -4.0; NCI-60 screen data; cited from earlier work
[2] = tested on: SK-MEL-28; settings: Melanoma SK-MEL-28; highest log conc -4.0; NCI-60 screen data; cited from earlier work
[3] = tested on: U251; settings: CNS U251; highest log conc -4.0; NCI-60 screen data; cited from earlier work
[4] = tested on: HOP-62; settings: Non-SmallCellLung HOP-62; highest log conc -4.0; NCI-60 screen data; cited from earlier work
[5] = tested on: CCRF-CEM; settings: Leukemia CCRF-CEM; highest log conc -4.0; NCI-60 screen data; cited from earlier work
[6] = tested on: K-562; settings: Leukemia K-562; highest log conc -4.0; NCI-60 screen data; cited from earlier work
[7] = tested on: RPMI-8226; settings: Leukemia RPMI-8226; highest log conc -4.0; NCI-60 screen data; cited from earlier work
[8] = tested on: A549/ATCC; settings: Non-SmallCellLung A549/ATCC; highest log conc -4.0; NCI-60 screen data; cited from earlier work
[9] = tested on: LOXIMVI; settings: Melanoma LOXIMVI; highest log conc -4.0; NCI-60 screen data; cited from earlier work
[10] = tested on: HT29; settings: Colon HT29; highest log conc -4.0; NCI-60 screen data; cited from earlier work
[11] = tested on: SNB-19; settings: CNS SNB-19; highest log conc -4.0; NCI-60 screen data; cited from earlier work
[12] = tested on: RXF393; settings: Renal RXF393; highest log conc -4.0; NCI-60 screen data; cited from earlier work
[13] = tested on: SK-MEL-5; settings: Melanoma SK-MEL-5; highest log conc -4.0; NCI-60 screen data; cited from earlier work
[14] = tested on: EKVX; settings: Non-SmallCellLung EKVX; highest log conc -4.0; NCI-60 screen data; cited from earlier work
[15] = tested on: TK-10; settings: Renal TK-10; highest log conc -4.0; NCI-60 screen data; cited from earlier work
[16] = tested on: HCT-15; settings: Colon HCT-15; highest log conc -4.0; NCI-60 screen data; cited from earlier work
[17] = tested on: MDA-MB-435; settings: Melanoma MDA-MB-435; highest log conc -4.0; NCI-60 screen data; cited from earlier work
[18] = tested on: OVCAR-3; settings: Ovarian OVCAR-3; highest log conc -4.0; NCI-60 screen data; cited from earlier work
[19] = tested on: SF-295; settings: CNS SF-295; highest log conc -4.0; NCI-60 screen data; cited from earlier work
[20] = tested on: OVCAR-5; settings: Ovarian OVCAR-5; highest log conc -4.0; NCI-60 screen data; cited from earlier work
[21] = tested on: IGROV1; settings: Ovarian IGROV1; highest log conc -4.0; NCI-60 screen data; cited from earlier work

Row | SMILES | GI50 AVGDATA [1] | GI50 AVGDATA [2] | GI50 AVGDATA [3] | GI50 AVGDATA [4] | GI50 AVGDATA [5] | GI50 AVGDATA [6] | GI50 AVGDATA [7] | GI50 AVGDATA [8] | GI50 AVGDATA [9] | GI50 AVGDATA [10] | GI50 AVGDATA [11] | GI50 AVGDATA [12] | GI50 AVGDATA [13] | GI50 AVGDATA [14] | GI50 AVGDATA [15] | GI50 AVGDATA [16] | GI50 AVGDATA [17] | GI50 AVGDATA [18] | GI50 AVGDATA [19] | GI50 AVGDATA [20] | further results
1 | COC(=O)N1c2ccc3c(nc(Cc4ccccc4)n3[C@H]3CCC[C@H](C(=O)O)C3)c2CC[C@@H]1C [FT-6876] | -4.82 | -4.88 | -4.77 | -4.95 | -5.18 | -5.3 | -5.42 | -4.56 | -5.99 | -5.26 | -4.9 | -4.91 | -4.99 | -4.75 | -5.24 | -4.79 | -5.07 | -4.88 | -4.93 | -4.51 | GI50 AVGDATA [21]: -4.68
2 | Cc1sc2c(c1C)C(c1ccc(Cl)cc1)=N[C@@H](CC(=O)OC(C)(C)C)c1nnc(C)n1-2 [JQ-1] | -6.53 | -6.4 | -5.91 | -6.92 | -6.11 | -7.24 | -7.4 | -6.5 | -7.17 | -7.01 | -6.38 | -6.13 | -6.47 | -5.93 | -7.23 | -6.8 | -6.87 | -6.3 | -6.74 | -4.98 | GI50 AVGDATA [21]: -6.19
3 | CO[C@H]1CC[C@H](n2c([C@@H]3CCCC(=O)N3c3ccc(F)c(F)c3)nc3cc(-c4c(C)noc4C)ccc32)CC1 [inobrodib] | -4.94 | -4.93 | -4.99 | -5.35 | -5.33 | -5.55 | -6.15 | -4.93 | -5.38 | -5.59 | -5.03 | -5.32 | -5.24 | -5.4 | -5.61 | -5.33 | -5.1 | -4.98 | -5.17 | -4.77 | GI50 AVGDATA [21]: -5.34
